Laboratory results reported in PubChem BioAssay AID1508612.

experiment: passive permeability, PAMPA, ADME assay (AID 1508612); conditions: pH 7.4, 30.0 min, 50.0 µM

Point of comparison: `Cc1nn(CCc2nc(-c3ccccc3)cs2)c2[nH]c(=O)cc(C(F)(F)F)c12`, Papp 426 ×10⁻⁶ cm/s. Against it:
- Cc1ccc(C(=O)N2CCc3sc(C(=O)NC(C)c4ccccc4)cc3C2)cc1 (stereo not drawn) — 1.9-fold higher, 799 ×10⁻⁶ cm/s
- Cc1noc(C)c1-c1ccc2ncnc(NCc3ccc4[nH]ccc4c3)c2c1 — higher, > 1000 ×10⁻⁶ cm/s
- COC(=O)C1=COC(C)C2CN3CCc4c([nH]c5cc(OC)c(OC)cc45)C3CC12 (stereo not drawn) — within 1.5-fold, 366 ×10⁻⁶ cm/s
- Cc1cccc2nc(NC3=NC(c4[nH]ncc4Cl)C4=C(CCCC4=O)N3)oc12 (stereo not drawn) — within 1.5-fold, 624 ×10⁻⁶ cm/s
- Cc1ccc(NC(=O)Nc2cc3c(cc2N2CCCCC2)n(C)c(=O)n3C)cc1Cl — 53-fold lower, 8 ×10⁻⁶ cm/s
- COc1ccccc1N1CCN(c2ccc3cc(S(=O)(=O)N4CCCCC4)ccc3n2)CC1 — higher, > 1000 ×10⁻⁶ cm/s
- COc1cccc(C(=O)Nc2nc(-c3nnn(-c4cc(C)ccc4C)c3C)ns2)c1 — within 1.5-fold, 340 ×10⁻⁶ cm/s
- O=C(Nc1ccc(S(=O)(=O)Nc2nccs2)cc1)c1ccnc2ccccc12 — 190-fold lower, 2.3 ×10⁻⁶ cm/s
- C[C@]12N[C@H](Cc3ccccc31)c1ccccc12 — higher, > 1000 ×10⁻⁶ cm/s
- O=[N+]([O-])c1ccc(CNc2ccc([S+](=O)([O-])Nc3nccs3)cc2)c(O)c1 — 360-fold lower, 1.2 ×10⁻⁶ cm/s
- CCc1ccc(NC(=O)[C@H](Cc2c[nH]c3ccccc23)NC(=O)[C@@H]2Cc3ccccc3CN2)cc1 — 3.8-fold lower, 111 ×10⁻⁶ cm/s
- OCc1cccc(-c2cc(-c3cccnc3)c3cncn3c2)c1 — 5.6-fold lower, 76 ×10⁻⁶ cm/s
- CC(C)(C)c1ccc(C(=O)Nc2ccc3c(c2)CCCN3C(=O)c2cccs2)cc1 — 2.4-fold lower, 181 ×10⁻⁶ cm/s
- Cc1nn(CC(=O)NCCCN2CCC(N3CCCCC3)CC2)c(=O)c2cc(-c3ccccc3)nn12 — 28-fold lower, 15.4 ×10⁻⁶ cm/s
- O=C(NC1CCCc2c1cnn2-c1cccc(O)c1)c1ccccn1 (stereo not drawn) — 2-fold higher, 836 ×10⁻⁶ cm/s
- CCOc1ccccc1C(=O)Nc1ccncc1C(=O)Nc1cccc(S(=O)(=O)C(F)(F)F)c1 — 4.3-fold lower, 99.5 ×10⁻⁶ cm/s
- COc1cccc(CNc2ccc(S(=O)(=O)Nc3nc(C)c(C)s3)cc2)c1O — 17-fold lower, 25.8 ×10⁻⁶ cm/s
- O=C(NCc1ccccc1)c1nc(S(=O)(=O)Cc2ccc(F)cc2)ncc1Cl — within 1.5-fold, 350 ×10⁻⁶ cm/s
- Cc1cccc(Nc2nc(NCc3ccco3)c3ccccc3n2)c1 — 1.7-fold higher, 730 ×10⁻⁶ cm/s
- Cc1onc(-c2ccc(F)cc2)c1COc1ccc(C(=O)N2CCS(=O)(=O)CC2)cn1 — 1.7-fold lower, 258 ×10⁻⁶ cm/s
- CC(=O)c1cccc(-c2csc(N3CCC(C(N)=O)CC3)n2)c1 — within 1.5-fold, 328 ×10⁻⁶ cm/s
- Cc1nc(-c2ccco2)cc([C@H]2CN3CC[C@H]2C[C@@H]3CNC(=O)NC2CCCCC2)n1 — within 1.5-fold, 475 ×10⁻⁶ cm/s
- O=C(C1CCN(c2nc(-c3ccc(Br)cc3)cs2)CC1)N1CCNCC1 — within 1.5-fold, 484 ×10⁻⁶ cm/s
- CC(=O)c1c(C)[nH]c(C(=O)Nc2ccc(Cl)cc2)c1C — within 1.5-fold, 364 ×10⁻⁶ cm/s
- CCCN1C(CC(C)C)=NS(=O)(=O)c2cc(NC(=O)c3cccs3)ccc21 — 1.8-fold higher, 762 ×10⁻⁶ cm/s
- O=c1[nH]cnc2nc[nH]c12 — lower, < 1 ×10⁻⁶ cm/s
- CSc1ccc(/C=C/c2nc3ccccc3n2S(=O)(=O)c2cccc(Cl)c2)cc1 — 2.1-fold higher, 911 ×10⁻⁶ cm/s
- Cc1ccc(-n2nc(C)c3c(-c4ccc(O)c(O)c4)c(C#N)c(N)nc32)cc1C — 2.3-fold lower, 187 ×10⁻⁶ cm/s
- O=S(=O)(Nc1ccc(S(=O)(=O)Nc2nccs2)cc1)c1ccc2ccccc2c1 — 58-fold lower, 7.37 ×10⁻⁶ cm/s
- Cc1ccc(S(=O)(=O)Nc2ccc(C)cc2C(=O)Nc2nc(-c3ccccc3)cs2)cc1 — lower, < 1 ×10⁻⁶ cm/s
- CCN1CCC(N(Cc2ccc3c(c2)OCO3)C(=O)Nc2cc(Cl)ccc2C(=O)OC)CC1 — higher, > 1000 ×10⁻⁶ cm/s
- CN(C)C(=O)NC1CCC(CCN2CCN(c3cccc(Cl)c3Cl)CC2)CC1 (stereo not drawn) — within 1.5-fold, 514 ×10⁻⁶ cm/s
- Cc1cc(N=Nc2ccc(S(=O)(=O)Nc3ccccn3)cc2)c(N)cc1O — 14-fold lower, 29.4 ×10⁻⁶ cm/s
- Cc1ccnc(NC(=S)N2CCCC(Nc3cccc(C(F)(F)F)c3)C2)c1 (stereo not drawn) — higher, > 1000 ×10⁻⁶ cm/s
- Cc1ccc(S(=O)(=O)N2CCN(C(=O)c3cc4c(s3)CCC4)CC2)cc1 — higher, > 1000 ×10⁻⁶ cm/s
- COc1ccc(-c2nc3ccc(C4=NNC(=O)CC4C)cc3[nH]2)cc1 (stereo not drawn) — 1.9-fold lower, 228 ×10⁻⁶ cm/s
- COc1cc(/C=C(\C#N)C(=O)c2ccc(O)c(O)c2)cc(I)c1O — lower, < 1 ×10⁻⁶ cm/s
- NC(=O)C1CCN(c2nc(-c3cccs3)cs2)CC1 — 2.2-fold lower, 195 ×10⁻⁶ cm/s
- CSc1nc(N)cc(Oc2ccc(-c3nc(Nc4cccc(C(F)(F)F)c4)n[nH]3)cc2)n1 — within 1.5-fold, 633 ×10⁻⁶ cm/s
- O=S(=O)(Nc1nccs1)c1ccc(NCc2ccccc2)cc1 — within 1.5-fold, 320 ×10⁻⁶ cm/s
- CCOc1ccc(CCNC(=O)c2cc3ccccc3n2Cc2cccc(C)n2)cc1OCC — higher, > 1000 ×10⁻⁶ cm/s
- O=C(Nc1ccc2c(N3CCCCC3)ncnc2c1)c1cc(F)cc(F)c1 — higher, > 1000 ×10⁻⁶ cm/s
- CCc1ccc(NC(=O)c2[nH]c(C)c(C(C)=O)c2C)cc1S(=O)(=O)Nc1ccc(C#N)cc1 — 8.9-fold lower, 48.1 ×10⁻⁶ cm/s
- O=C(NCc1cccc(C(F)(F)F)c1)c1ccc(CN2CCCCC2)cc1 — higher, > 1000 ×10⁻⁶ cm/s
- CCOC(=O)c1[nH]c(C)c(CCC(=O)N2CCN(c3cc(C)ccc3C)CC2)c1C — higher, > 1000 ×10⁻⁶ cm/s
- Cc1ccc(S(=O)(=O)Nc2cnccc2C(=O)Nc2nc(-c3ccc4c(c3)CCCC4)cs2)cc1 — 9.4-fold lower, 45.2 ×10⁻⁶ cm/s
- NC(=O)c1cccc(-c2cc(Nc3ccc(OC(F)(F)F)cc3)ncn2)c1 — within 1.5-fold, 579 ×10⁻⁶ cm/s
- O=C(Nc1nc(-c2ccccc2)cs1)c1ccncc1NS(=O)(=O)c1ccccc1Cl — higher, > 1000 ×10⁻⁶ cm/s
- O=c1c(-c2ccc(O)cc2)coc2cc(O)ccc12 — lower, < 1 ×10⁻⁶ cm/s
- Cc1cnc(-c2ccccc2C(F)F)nc1NCc1ccc(-n2ccnn2)cc1 — higher, > 1000 ×10⁻⁶ cm/s
- Cc1ccnc(NC(=S)N2CCN(c3cccc(C(F)(F)F)n3)CC2)c1 — 2-fold higher, 866 ×10⁻⁶ cm/s
- COc1ccc(-c2nc(N3CCOCC3)c3sc(CN(C)c4ncc(C(=O)NO)cn4)cc3n2)cn1 — within 1.5-fold, 496 ×10⁻⁶ cm/s
